{"source": "paper PMC11942566", "about": "“Next-Generation Analogues of AC265347 as Positive Allosteric Modulators of the Calcium-Sensing Receptor: Pharmacological Investigation of Structural Modifications at the Stereogenic Centre” (International Journal of Molecular Sciences, 2025)", "key": {"[1]": {"target": "T1, wild-type human CaSR (calcium-sensing receptor) (Homo sapiens, UniProt P41180)", "T1 construct": "full-length wild-type, cmyc-tagged", "T1 sequence (P41180 20-1078)": "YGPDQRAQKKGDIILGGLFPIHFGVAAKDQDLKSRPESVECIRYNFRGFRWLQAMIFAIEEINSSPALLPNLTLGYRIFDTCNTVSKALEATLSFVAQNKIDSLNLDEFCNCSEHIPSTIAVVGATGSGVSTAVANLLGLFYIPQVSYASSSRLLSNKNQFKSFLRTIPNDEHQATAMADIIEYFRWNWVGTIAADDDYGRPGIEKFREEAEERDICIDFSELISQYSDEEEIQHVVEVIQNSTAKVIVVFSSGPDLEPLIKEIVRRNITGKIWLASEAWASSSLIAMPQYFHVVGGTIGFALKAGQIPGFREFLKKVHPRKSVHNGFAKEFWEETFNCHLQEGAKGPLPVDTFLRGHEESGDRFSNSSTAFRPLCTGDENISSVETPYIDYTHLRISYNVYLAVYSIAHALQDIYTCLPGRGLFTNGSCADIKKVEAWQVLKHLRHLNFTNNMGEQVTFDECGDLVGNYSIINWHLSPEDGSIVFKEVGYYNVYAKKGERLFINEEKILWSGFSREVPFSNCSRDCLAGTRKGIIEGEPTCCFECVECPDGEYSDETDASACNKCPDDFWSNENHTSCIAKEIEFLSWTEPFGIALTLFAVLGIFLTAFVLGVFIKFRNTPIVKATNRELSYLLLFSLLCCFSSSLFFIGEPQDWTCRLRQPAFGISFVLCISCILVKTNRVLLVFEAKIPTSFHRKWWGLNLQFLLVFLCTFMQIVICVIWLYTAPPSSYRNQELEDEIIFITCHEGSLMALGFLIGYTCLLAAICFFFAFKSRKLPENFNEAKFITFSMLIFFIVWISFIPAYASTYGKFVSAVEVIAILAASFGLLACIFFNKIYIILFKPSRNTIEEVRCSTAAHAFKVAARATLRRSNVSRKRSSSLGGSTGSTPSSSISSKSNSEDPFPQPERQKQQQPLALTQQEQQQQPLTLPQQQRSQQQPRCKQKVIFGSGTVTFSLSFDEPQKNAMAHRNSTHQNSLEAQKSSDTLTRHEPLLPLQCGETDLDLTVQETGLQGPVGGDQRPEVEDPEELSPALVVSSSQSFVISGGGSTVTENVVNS", "assay": "Ca2+i mobilisation (Fluo-8), operational model of allosteric modulation", "format": "cell-based", "settings": "for Kb: read-out: pKB ± SEM (KB) (converted)", "from_the_text": "Ca2+i mobilisation (Fluo-8), operational model of allosteric modulation on wild-type human CaSR (calcium-sensing receptor)"}, "[2]": {"target": "T1, wild-type human CaSR (calcium-sensing receptor)", "assay": "Ca2+i mobilisation (Fluo-8), four-parameter sigmoidal fit with shared Hill slope", "format": "cell-based", "settings": "positive allosteric modulation of Ca2+o response, pH 7.4, 37 °C; KB not determinable"}, "[3]": {"settings": "functional affinity estimate (from pKB), positive allosteric modulator, allosteric site, Ca2+o as orthosteric agonist, pH 7.4, 37 °C, reanalysis of the authors' previously published data, cited from earlier work"}}, "note": "Like-named read-outs stand apart in the source and are kept apart here.", "data": [{"smiles": "Cc1ccc(C(C)(O)c2nc3ccccc3s2)c(C)c1", "note": "(racemic) [compound 1, 1-(Benzo[d]thiazol-2-yl)-1-(2,4-dimethylphenyl)ethan-1-ol]", "values": [{"measurement": "Kb", "setting": "[1]; [3]", "value": 3.4, "unit": "µM"}]}, {"smiles": "Cc1ccc(C2(c3nc4ccccc4s3)CO2)c(C)c1", "note": "(racemic) [compound 6, 2-(2-(2,4-Dimethylphenyl)oxiran-2-yl)benzo[d]thiazole]", "values": [{"measurement": "Kb", "setting": "[1]", "value": 29, "unit": "µM"}]}, {"smiles": "COC(C)(c1nc2ccccc2s1)c1ccc(C)cc1C", "note": "(racemic) [compound 8, 2-(1-(2,4-Dimethylphenyl)-1-methoxyethyl)benzo[d]thiazole]", "values": [{"measurement": "fold increase in Ca2+o potency (pEC50) at 10 μM", "setting": "[2]", "value": 1.8, "unit": "fold"}]}, {"smiles": "Cc1ccc(C(O)(c2nc3ccccc3s2)C(F)(F)F)c(C)c1", "note": "(racemic) [compound 5, 5]", "values": [{"measurement": "Kb", "setting": "[1]; [3]", "value": 5, "unit": "µM"}]}, {"smiles": "C=CC(O)(c1nc2ccccc2s1)c1ccc(C)cc1C", "note": "(racemic) [7b, 1-(Benzo[d]thiazol-2-yl)-1-(2,4-dimethylphenyl)prop-2-en-1-ol]", "values": [{"measurement": "Kb", "setting": "[1]", "value": 8.1, "unit": "µM"}]}, {"smiles": "Cc1ccc(C(C)(F)c2nc3ccccc3s2)c(C)c1", "note": "(racemic) [compound 9, 2-(1-(2,4-Dimethylphenyl)-1-fluoroethyl)benzo[d]thiazole]", "values": [{"measurement": "Kb", "setting": "[1]", "value": 10, "unit": "µM"}]}, {"smiles": "Cc1ccc(C2(c3nc4ccccc4s3)CCO2)c(C)c1", "note": "(racemic) [compound 7, 2-(2-(2,4-Dimethylphenyl)oxetan-2-yl)benzo[d]thiazole]", "values": [{"measurement": "pKB ± SEM (KB, μM)", "setting": "[1]; functional affinity estimate (from pKB), positive allosteric modulator, allosteric site, Ca2+o as orthosteric agonist, pH 7.4, 37 °C, unreliable (extrapolated beyond highest tested concentration 30 μM)", "value": 123, "unit": "μM"}]}]}
